This experiment addresses T1, Human M4 (Homo sapiens, UniProt P08173).
T1 sequence (P08173 1-479): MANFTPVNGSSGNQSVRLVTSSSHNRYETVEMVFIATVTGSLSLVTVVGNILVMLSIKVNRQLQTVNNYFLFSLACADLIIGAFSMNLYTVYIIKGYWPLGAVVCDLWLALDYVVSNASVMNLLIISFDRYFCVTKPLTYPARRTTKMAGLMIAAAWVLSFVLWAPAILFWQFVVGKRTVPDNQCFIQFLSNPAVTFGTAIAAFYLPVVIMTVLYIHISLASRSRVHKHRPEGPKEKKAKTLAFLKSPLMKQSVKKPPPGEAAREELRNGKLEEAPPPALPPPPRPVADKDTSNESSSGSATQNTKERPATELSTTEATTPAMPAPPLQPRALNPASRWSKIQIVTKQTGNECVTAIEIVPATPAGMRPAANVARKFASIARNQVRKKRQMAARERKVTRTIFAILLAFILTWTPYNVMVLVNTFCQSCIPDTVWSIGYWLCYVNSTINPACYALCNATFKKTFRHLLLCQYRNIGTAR
The experiment is described as follows: M4 cell-based functional assay (calcium mobilization). Further details: expressed in transfected cells. The conditions noted are these: for Emax at 30 µM: % ACh maximum at 30 μM; for EC50: CHO-K1 hM4-Gqi5 cells, calcium flux, increase in EC20 acetylcholine response. As for the experimental part:
Human (h) and rat (r) M4 CDNAs, along with the chimeric G protein Gqi5, were transfected into Chinese hamster ovary (CHO-K1) cells purchased from the American Type Culture Collection using Lipofectamine2000. The transfected cells were subjected to selection antibiotic treatment to generate stable cell lines; G418 sulfate (1 mg/ml) for selecting M4 expressing cells and Hygromycin B (500 μg/mL) for selecting Gqi5 expressing cells. The resulting polyclones were further screened to obtain monoclones of hM4-Gqi5 and rM4-Gqi5 for compound screening assay. Stable monoclone cells were maintained in Ham's F-12 medium containing 10% heat-inactivated fetal bovine serum (FBS), 1× Antibiotic/Antimycotic, 20 mM HEPES, 500 μg/mL G418 sulfate, and 200 μg/mL Hygromycin B in 37° C. humidified incubators in the presence of 5% CO2.
The high throughput assay was employed to measure receptor-induced mobilization of intracellular calcium to determine compound activity. Test compound was added to cells expressing the muscarinic receptors that were loaded with calcium sensitive fluorescent dye. After a ˜2.5 minute incubation period, a submaximal (EC20) concentration of acetylcholine was added, and the response measured. This kinetic assay allows for simultaneous screening and potency determination of multiple pharmacological modes of action including agonist and potentiator activity. CHO-K1 cells stably expressing muscarinic receptors were plated in growth medium lacking G418 and hygromycin at 15,000 cells/20 μL/well in Greiner 384-well black-walled, tissue culture (TC)-treated, clear-bottom plates (Greiner Bio-One). Cells were incubated overnight at 37° C. and 5% CO2. The next day, calcium assay buffer (Hank's balanced salt solution (HBSS), 20 mM HEPES, 2.5 mM Probenecid, 4.16 mM sodium bicarbonate (Sigma-Aldrich, St. Louis, MO)) was prepared to dilute compounds, agonists, and Fluo-4-acetomethoxyester (Fluo-4-AM), fluorescent calcium indicator dye. Compounds were serially diluted 1:3 into 10 point concentration response curves in DMSO using the Bravo Liquid Handler (Agilent, Santa Clara, CA), transferred to a 384 well daughter plates using an Echo acoustic liquid handler (Beckman Coulter, Indianapolis, Indiana), and diluted in assay Buffer to a 2× final concentration. The agonist plates were prepared using acetylcholine (ACh, Sigma-Aldrich, St. Louis, MO) concentrations for the EC20 and ECMAX responses by diluting in assay buffer to a 5× final concentration. The 2× dye solution (2.3 μM) was prepared by mixing a 2.3 mM Fluo-4-AM stock in DMSO with 10% (w/v) pluronic acid F-127 in a 1:1 ratio in assay buffer. Using a microplate washer (BioTek, Winooski, VT), cells were washed with assay buffer for 3 times to remove medium. After the final wash, 20 μL of assay buffer remained in the cell plates. Immediately, 20 μL of the 2× dye solution (final 1.15 μM) was added to each well of the cell plate using a Multidrop Combi dispenser (Thermo Fisher, Waltham, MA). After cells were incubated with the dye solutions for 45 min at 37° C. in the presence of 5% CO2, the dye solutions were removed and replaced with assay buffer using a microplate washer, leaving 20 μL of assay buffer in the cell plate.
The prepared compound, agonist, and cell plates were placed inside the Functional Drug Screening System uCell (FDSS uCell, Hamamatsu, Japan) to measure the calcium flux.
The triple add protocol was used to measure Ca kinetics; Compound, ACh for EC2O, and ACh for EC80 adds in an order. Briefly, after establishment of a fluorescence baseline for 2 seconds (excitation, 480 nm; emission, 530 nm), first add occurred by adding 20 μL of test compound to the cells, and the response was measured for 140 seconds. This is followed by second add; 10 μL (5×) of an EC20 concentration of ACh agonist was added to the cells, and the response of the cells was measured for 125 seconds. […]

The text below walks through data of patent publication US12139498B1, “Positive allosteric modulators of the muscarinic acetylcholine receptor M4” (Vanderbilt University, priority 2023, dated 2024).

For `Cc1cc2c(N3CCc4nc(Br)sc4C3)ncnc2s1` [Compound 24, 2-bromo-5-(6-methylthieno[2,3-d]pyrimidin-4-yl)-4,5,6,7-tetrahydrothiazolo[5,4-c]pyridine], the Emax – broadly, the maximal effect, on the per cent scale that the assay sets – at 30 µM worked out at 102% and the EC50 (usually the concentration at which the effect is half-maximal) stood at 0.05 µM.
Consider `Cc1noc2ncnc(N3CCc4nc(Br)sc4C3)c12` [Compound 25, 4-(2-bromo-6,7-dihydrothiazolo[5,4-c]pyridin-5(4H)-yl)-3-methylisoxazolo[5,4-d]pyrimidine], for which the maximal effect (Emax) at 30 µM was 113% and the half-maximal effective concentration (EC50) amounted to 1.29 µM.
The corresponding values for `Brc1nc2c(s1)CN(c1ncnc3ccsc13)CC2` [Compound 26, 2-bromo-5-(thieno[3,2-d]pyrimidin-4-yl)-4,5,6,7-tetrahydrothiazolo[5,4-c]pyridine] are 98% and 0.43 µM.
Take `Cn1ccc2c(N3CCc4nc(Br)sc4C3)ncnc21` [Compound 27, 2-bromo-5-(7-methyl-7H-pyrrolo[2,3-d]pyrimidin-4-yl)-4,5,6,7-tetrahydrothiazolo[5,4-c]pyridine]: the maximal effect (Emax) at 30 µM worked out at 43% and the EC50 was over 10 µM.
In the same order, the values of `Fc1ccc2ncnc(N3CCc4nc(Br)sc4C3)c2c1` [Compound 28, 2-bromo-5-(6-fluoroquinazolin-4-yl)-4,5,6,7-tetrahydrothiazolo[5,4-c]pyridine] are 101% and 0.045 µM.
On to `Clc1ccc2ncnc(N3CCc4nc(Br)sc4C3)c2c1` [Compound 29, 2-bromo-5-(6-chloroquinazolin-4-yl)-4,5,6,7-tetrahydrothiazolo[5,4-c]pyridine], for which the maximum response (Emax) at 30 µM came out at 96% and the EC50 came out at 0.144 µM.
The corresponding values for `Cc1ccc2ncnc(N3CCc4nc(Br)sc4C3)c2c1` [Compound 30, 2-bromo-5-(6-methylquinazolin-4-yl)-4,5,6,7-tetrahydrothiazolo[5,4-c]pyridine] are 91% and 0.147 µM.
In the same order, the values of `COc1ccc2ncnc(N3CCc4nc(Br)sc4C3)c2c1` [Compound 31, 2-bromo-5-(6-methoxyquinazolin-4-yl)-4,5,6,7-tetrahydrothiazolo[5,4-c]pyridine] are 68% and 0.566 µM.
The corresponding values for `Cc1nc(N2CCc3nc(Br)sc3C2)c2cc(Cl)ccc2n1` [Compound 32, 2-bromo-5-(6-chloro-2-methylquinazolin-4-yl)-4,5,6,7-tetrahydrothiazolo[5,4-c]pyridine] are 91% and 0.2 µM.
Regarding `Cc1nc(N2CCc3nc(Br)sc3C2)c2cc(F)ccc2n1` [Compound 33, 2-bromo-5-(6-fluoro-2-methylquinazolin-4-yl)-4,5,6,7-tetrahydrothiazolo[5,4-c]pyridine], the Emax at 30 µM came to 99% and the EC50 worked out at 0.079 µM.
In the same order, the values of `Cc1cc2nccc(=O)n2nc1N1CCc2nc(Br)sc2C1` [Compound 34, 7-(2-bromo-6,7-dihydrothiazolo[5,4-c]pyridin-5(4H)-yl)-8-methyl-4H-pyrimido[1,2-b]pyridazin-4-one] are 70% and 6.07 µM.
With `Cc1cc(=O)n2nc(N3CCc4nc(Br)sc4C3)c(C)cc2n1` [Compound 35, 7-(2-bromo-6,7-dihydrothiazolo[5,4-c]pyridin-5(4H)-yl)-2,8-dimethyl-4H-pyrimido[1,2-b]pyridazin-4-one], the Emax at 30 µM was determined as 89% and the half-maximal effective concentration (EC50) was found to be 0.291 µM.
In the case of `Cc1cc2nc(C(F)(F)F)cc(=O)n2nc1N1CCc2nc(Br)sc2C1` [Compound 36, 7-(2-bromo-6,7-dihydrothiazolo[5,4-c]pyridin-5(4H)-yl)-8-methyl-2-(trifluoromethyl)-4H-pyrimido[1,2-b]pyridazin-4-one], the Emax at 30 µM came out at 91% and the concentration giving a half-maximal response (EC50) stood at 0.037 µM.
In the same order, the values of `Cc1nc2c(C)c(C)c(N3CCc4nc(Br)sc4C3)nn2c(=O)c1F` [Compound 37, 7-(2-bromo-6,7-dihydrothiazolo[5,4-c]pyridin-5(4H)-yl)-3-fluoro-2,8,9-trimethyl-4H-pyrimido[1,2-b]pyridazin-4-one] are 81% and 0.047 µM.
In the same order, the values of `Cc1cc2nc(C)c(C)c(=O)n2nc1N1CCc2nc(Br)sc2C1` [Compound 38, 7-(2-bromo-6,7-dihydrothiazolo[5,4-c]pyridin-5(4H)-yl)-2,3,8-trimethyl-4H-pyrimido[1,2-b]pyridazin-4-one] are 80% and 1.18 µM.
In the case of `Cc1cc2nc(C(F)F)cc(=O)n2nc1N1CCc2nc(Br)sc2C1` [Compound 39, 7-(2-bromo-6,7-dihydrothiazolo[5,4-c]pyridin-5(4H)-yl)-2-(difluoromethyl)-8-methyl-4H-pyrimido[1,2-b]pyridazin-4-one], the Emax at 30 µM worked out at 88% and the half-maximal effective concentration (EC50) came out at 0.075 µM.
For `Cc1cc2nc(C)c(F)c(=O)n2nc1N1CCc2nc(Br)sc2C1` [Compound 40, 7-(2-bromo-6,7-dihydrothiazolo[5,4-c]pyridin-5(4H)-yl)-3-fluoro-2,8-dimethyl-4H-pyrimido[1,2-b]pyridazin-4-one], the Emax at 30 µM is 85% and the concentration for a half-maximal effect (EC50) was determined as 0.094 µM.
In the same order, the values of `Cc1cc2nc(C(=O)NCc3cncs3)cc(=O)n2nc1N1CCc2nc(Br)sc2C1` [Compound 42, 7-(2-bromo-6,7-dihydrothiazolo[5,4-c]pyridin-5(4H)-yl)-8-methyl-4-oxo-N-(thiazol-5-ylmethyl)-4H-pyrimido[1,2-b]pyridazine-2-carboxamide] are 87% and 0.418 µM.
In the case of `Cc1cc2nc(C(=O)N3CC(C)C3)cc(=O)n2nc1N1CCc2nc(Br)sc2C1` [Compound 43, 7-(2-bromo-6,7-dihydrothiazolo[5,4-c]pyridin-5(4H)-yl)-8-methyl-2-(3-methylazetidine-1-carbonyl)-4H-pyrimido[1,2-b]pyridazin-4-one], the maximal effect (Emax) at 30 µM is 87% and the EC50 came to 1.96 µM.
For the molecule `COC1CN(C(=O)c2cc(=O)n3nc(N4CCc5nc(Br)sc5C4)c(C)cc3n2)C1` [Compound 44, 7-(2-bromo-6,7-dihydrothiazolo[5,4-c]pyridin-5(4H)-yl)-2-(3-methoxyazetidine-1-carbonyl)-8-methyl-4H-pyrimido[1,2-b]pyridazin-4-one], the maximal response (Emax) at 30 µM is 93% and the EC50 worked out at 2.39 µM.
Take `Cc1cc2nc(C(=O)N3CC(C)(F)C3)cc(=O)n2nc1N1CCc2nc(Br)sc2C1` [Compound 45, 7-(2-bromo-6,7-dihydrothiazolo[5,4-c]pyridin-5(4H)-yl)-2-(3-fluoro-3-methylazetidine-1-carbonyl)-8-methyl-4H-pyrimido[1,2-b]pyridazin-4-one]: the Emax at 30 µM was determined as 85% and the EC50 turned out to be 0.752 µM.
